# Experimental data published in patent US20140335166A1, “Methods of Making and Using Nano Scale Particles” (priority 2013, published 2014).
# Test system: Cultured liver cells
# Test: Phosphatidylcholine biosynthesis as measure of cell function in cultured liver cells incubated with ethanol
# Assay type: cell-based
# Conditions: 100 mM ethanol, 24 hours
# Experimental: As an example of the effectiveness of using the PPC, the following experiments were conducted. Cultured liver cells were incubated for 24 hours with 100 mM ethanol in the presence of (1) water, (2) VEP/EPC (egg phosphatidylcholine), or (3) VEP/PPC. Agent-dependent alterations in cell function were determined by measuring phosphatidylcholine biosynthesis. Similar results were obtained in the three separate preparations of cultured cells, all of which are reflected in the Table 1 set forth below. Control cells are expressed as 100%, meaning full cellular function. A reduction below 100% represents a decrease in cell function.
smiles,measurement,setting,value
CCO [Ethanol],reduction in cell function from control cells,,63%
same,"% Control ± SEM (phosphatidylcholine biosynthesis, cell function)","control cells = 100%, VEP/EPC (15 Mm EPC), VEP/PPC (15 Mm VEP and 30 Mm PPC)",37 ± 1 %
